Measurements from publication PMC3592416 (Nucleic Acids Research, 2012).

Legend:
PoTC [1] = target: T1, PoTC (Saccharomyces cerevisiae, UniProt P02406+P0CX27); test: Release of mRNA from PoTC; type: biochemical; settings: for effect of Mg2+ on the inhibitory effect (mRNA release): 100 µM antibiotic, various concentrations of MgCl2
eEF3/ribosomes = test: ATP hydrolysis assay; type: biochemical, Saccharomyces cerevisiae; settings: for amount of ATPase inhibited: total ATP hydrolysis 97 pmol
PoTC [2] = target: T1, PoTC; test: Complete disassembly of PoTC by eEF3/ATP; type: biochemical; settings: for inhibition of eEF3-dependent disassembly reaction: 1 mM antibiotic
translocation = settings: cited from earlier work
vacant ribosomes = settings: read-out: Kd with vacant ribosomes; cited from earlier work
PoTC [3] = target: T1, PoTC; settings: inhibitor alone, without eEF2/GTP; cited from earlier work
yeast ribosomal subunits = test: Induction of subunit association; type: biochemical; settings: 1 mM PAR, 5 s at 30°C after disassembly
PoTC [4] = target: T1, PoTC; settings: cited from earlier work
[5] = 1 mM antibiotic, 50 µM ATP, 0.5 µM eEF3, 1 min 30°C

T1 sequence (P02406 2-149): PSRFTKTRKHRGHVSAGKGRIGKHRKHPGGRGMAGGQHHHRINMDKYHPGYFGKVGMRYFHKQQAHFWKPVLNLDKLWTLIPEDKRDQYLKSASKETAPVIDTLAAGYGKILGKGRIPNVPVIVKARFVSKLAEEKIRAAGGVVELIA
T1 sequence (P0CX27 2-106): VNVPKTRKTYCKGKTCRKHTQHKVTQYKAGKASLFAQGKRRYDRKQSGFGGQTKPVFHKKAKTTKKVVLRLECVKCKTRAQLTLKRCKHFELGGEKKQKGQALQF
T1 sequence (P16521 2-1044 partner): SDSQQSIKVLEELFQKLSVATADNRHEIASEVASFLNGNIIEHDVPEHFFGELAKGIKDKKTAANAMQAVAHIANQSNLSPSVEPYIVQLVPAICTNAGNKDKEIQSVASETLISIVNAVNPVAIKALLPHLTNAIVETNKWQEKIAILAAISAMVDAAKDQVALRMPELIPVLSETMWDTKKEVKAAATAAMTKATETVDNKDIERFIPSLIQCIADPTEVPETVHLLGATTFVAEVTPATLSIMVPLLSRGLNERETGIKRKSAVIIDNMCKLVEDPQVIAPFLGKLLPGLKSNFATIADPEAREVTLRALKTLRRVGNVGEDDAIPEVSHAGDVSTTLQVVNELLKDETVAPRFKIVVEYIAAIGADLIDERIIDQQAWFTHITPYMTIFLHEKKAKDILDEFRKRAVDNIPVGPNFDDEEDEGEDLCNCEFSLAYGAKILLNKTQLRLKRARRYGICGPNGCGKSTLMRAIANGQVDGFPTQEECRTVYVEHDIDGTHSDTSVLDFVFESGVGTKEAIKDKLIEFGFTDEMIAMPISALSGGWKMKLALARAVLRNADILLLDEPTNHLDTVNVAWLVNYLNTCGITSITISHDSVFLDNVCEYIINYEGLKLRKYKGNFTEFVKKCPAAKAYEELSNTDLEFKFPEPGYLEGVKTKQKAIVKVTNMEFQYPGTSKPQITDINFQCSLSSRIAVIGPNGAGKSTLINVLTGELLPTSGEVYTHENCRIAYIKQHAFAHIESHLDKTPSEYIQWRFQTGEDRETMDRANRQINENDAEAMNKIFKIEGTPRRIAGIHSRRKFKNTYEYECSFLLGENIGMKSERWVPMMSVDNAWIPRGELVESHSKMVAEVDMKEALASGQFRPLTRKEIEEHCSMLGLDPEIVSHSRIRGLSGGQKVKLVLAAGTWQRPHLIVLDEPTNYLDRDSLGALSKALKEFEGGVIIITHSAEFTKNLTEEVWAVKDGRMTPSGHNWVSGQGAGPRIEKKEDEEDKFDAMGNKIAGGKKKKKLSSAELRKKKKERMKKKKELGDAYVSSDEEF

Structure (SMILES) | effect of Mg2+ on the inhibitory effect (mRNA release) (PoTC [1]) | inhibition of ATP hydrolysis by eEF3/ribosomes (eEF3/ribosomes; [5]) | amount of ATPase inhibited (eEF3/ribosomes; 1 mM antibiotic) | inhibition of eEF3-dependent disassembly reaction (PoTC [2]) | inhibition of eEF3-dependent release of mRNA from PoTC (PoTC [3]) | other results
C[C@@H]1C[C@@H]([C@H](O)CC2CC(=O)NC(=O)C2)C(=O)[C@@H](C)C1 [CHX, cycloheximide] | remarkable stimulatory effect | ~20% | 22 pmol | almost complete maximum inhibition |  | mode of inhibition with respect to ATP (PoTC [1]; Lineweaver-Burk, mRNA release): non-competitive inhibitor; mode of inhibition with respect to eEF3 (PoTC [1]; Lineweaver-Burk, mRNA release): non-competitive inhibitor; IC50 (translocation; read-out: IC50 for the inhibition of translocation): 1.2 µM; Kd (vacant ribosomes): 15 µM
CC(=O)O[C@H]1C[C@@]2(C)[C@@H](C[C@@H](O)[C@H]3[C@@]4(C)CC[C@@H](O)[C@@H](C)[C@@H]4CC[C@@]32C)/C1=C(\CCC=C(C)C)C(=O)O [FA, fusidic acid] |  |  |  |  | only slightly inhibit | 
C/C(=C\[C@H](C)C(=O)C[C@H](O)CC1CC(=O)NC(=O)C1)[C@@H]1OC(=O)/C=C/CC/C=C/C=C\[C@@H]1C [LTM, lactimidomycin] |  |  |  |  |  | concentration at which maximum inhibition was obtained (PoTC [2]; three disassembly reactions): 100 µM; concentration which inhibits translocation almost completely (translocation): 200 µM
NC[C@@H]1O[C@H](O[C@H]2[C@@H](O)[C@H](O[C@@H]3[C@@H](O)[C@H](N)C[C@H](N)[C@H]3O[C@H]3O[C@H](CO)[C@@H](O)[C@H](O)[C@H]3N)O[C@@H]2CO)[C@H](N)[C@@H](O)[C@@H]1O [PAR, paromomycin] | not significantly influenced | ~20% | 22 pmol | almost complete maximum inhibition |  | association of ribosomal subunits (yeast ribosomal subunits): re-associated yeast ribosomal subunits
CO[C@H]1[C@@H](O)[C@H](O)[C@H](OC[C@@]23C[C@@H]4[C@H](C)CC[C@H]4[C@@]4(C=O)CC2C=C(C(C)C)[C@@]34C(=O)O)O[C@@H]1C [SOR, sordarin] |  |  |  |  | only slightly inhibit | 
[O]=[V]([O-])([O-])[O-] [vanadate] |  |  |  |  |  | amount of ATP hydrolysis inhibited (eEF3/ribosomes; vanadate positive control): 52 pmol; inhibition of ATP hydrolysis by eEF3/ribosomes (eEF3/ribosomes; vanadate positive control): about 50%; effect on the disassembly of PoTC (PoTC [4]): without inhibiting
